Patent publication US5019576A, “2-substituted N,N'-ditrimethoxybenzoyl piperazines and therapeutic compositions containing them” (Societe de Conseils de Recherches et d'Applications …, priority 1989, dated 1991)

Experiments:
PAF receptors = biological target: T1, PAF receptors (Oryctolagus cuniculus, UniProt G1TEI7); assay: Binding studies on a rabbit platelet homogenate (3[H]-PAF)
T1 construct: from tissue; host or cells: rabbit platelet homogenate
Excerpt: This activity was evidenced by binding studies on a rabbit platelet homogenate. In this preparation indeed, those derivatives inhibit the specific bond of ^3 [H]--PAF, whereas they are without significative effect on the binding of the appropriate ligands on tissue homogenates rich in benzodiazepinic (central and peripheral), histaminergic (H1 and H2) and adrenergic (α1, α2, β2, β3) receptors, to angiotensine II or to ANF. Their affinity is therefore characteristic of PAF receptors.

[1] = tested on: platelet aggregation induced by 2.5 nm of PAF; assay: Inhibition of PAF-induced platelet aggregation on platelet rich plasma (Born method); format: cell-based, New Zealand rabbits; settings: Oryctolagus cuniculus; rabbit platelet rich plasma, 2.5 nm PAF
Protocol: 1. --Inhibition of the platelets aggregation on New Zealand Rabbits
The experimentation was conducted on platelets with plasma of New Zealand rabbits.
Blood samples were taken from auricular artery and placed in a citrate buffer (3.8%; pH 7.4); blood was further centrifugated for 15 mn at 1200 rpm.
The tested sample was prepared in DMSO, then poured on platelets rich plasma for 1 mn, then a dose of 2.5 nm of PAF was added.
The determination is made on a Cronolog Coultronics apparatus which determines the transmission percentage corresponding to the maximum height of the peak before the desaggregation.
The percentage of variation of the inhibition with respect to the transmission percentage is calculated (control: pure DMSO).
This method was described in detail in LABORATORY INVESTIGATIONS, Vol. 41, No. 3, p. 275, 1979, JEAN-PIERRE CAZENAVE, Dr. MED., JACQUES BENVENISTE, DR. MED., AND J. FRASER MUSTARD, M. D., "Aggregation of rabbits platelets by platelet-activating factor is independent of the release reaction and the arachidonate pathway and inhibited by membrane-active drugs".

T1 sequence (G1TEI7 1-342): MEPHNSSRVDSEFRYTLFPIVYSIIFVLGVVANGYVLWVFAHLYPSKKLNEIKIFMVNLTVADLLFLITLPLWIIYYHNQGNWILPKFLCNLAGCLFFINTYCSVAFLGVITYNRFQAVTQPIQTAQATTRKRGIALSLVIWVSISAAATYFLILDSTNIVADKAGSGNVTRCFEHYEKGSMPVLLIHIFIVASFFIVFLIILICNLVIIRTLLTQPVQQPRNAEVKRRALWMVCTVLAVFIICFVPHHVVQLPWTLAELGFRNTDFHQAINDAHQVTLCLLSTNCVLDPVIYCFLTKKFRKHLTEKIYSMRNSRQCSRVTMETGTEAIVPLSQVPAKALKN

Which IC50 (PAF receptors) does the source give for `CCCCCCCCC1CN(C(=O)c2cc(OC)c(OC)c(OC)c2)CCN1C(=O)c1cc(OC)c(OC)c(OC)c1` (centres unmarked) [Example 1, N,N'-bis-(3',4',5'-trimethoxybenzoyl)-2-n-octyl piperazine] here?
The IC50 was 62 nM.

And the IC50 [1]?
Its IC50 is 120 nM.

Which results are given for `COc1cc(C(=O)N2CCN(C(=O)c3cc(OC)c(OC)c(OC)c3)C(CCC(C)(C)C)C2)cc(OC)c1OC` (centres unmarked) [Example 2, N,N'-bis-(3',4',5'-trimethoxybenzoyl) 2-(3",3"-dimethyl) -butyl piperazine]?
IC50 (PAF receptors): 250 nM; IC50 [1]: 710 nM

What does the source list for `COc1cc(C(=O)N2CCN(C(=O)c3cc(OC)c(OC)c(OC)c3)C(C)C2)cc(OC)c1OC` (centres unmarked) [Example 3, N,N'-bis-(3',4',5'-trimethoxybenzoyl) 2-methyl piperazine]?
IC50 (PAF receptors): 670 nM; IC50 [1]: 560 nM

What does the source list for `CCCCCC1CN(C(=O)c2cc(OC)c(OC)c(OC)c2)CCN1C(=O)c1cc(OC)c(OC)c(OC)c1` (centres unmarked) [Example 4, N,N'-bis-(3',4',5'-trimethoxybenzoyl) 2-n-pentyl piperazine]?
IC50 (PAF receptors): 32 nM; IC50 [1]: 190 nM

What does the source list for `CCCCCCCCCCCCCCCC1CN(C(=O)c2cc(OC)c(OC)c(OC)c2)CCN1C(=O)c1cc(OC)c(OC)c(OC)c1` (centres unmarked) [Example 5, N,N'-bis-(3',4',5'-trimethoxybenzoyl) 2-n-pentadecyl piperazine]?
IC50 (PAF receptors): 6300 nM; IC50 [1]: 5800 nM

For `CCCCCCCCCCCCCCCCCCCC1CN(C(=O)c2cc(OC)c(OC)c(OC)c2)CCN1C(=O)c1cc(OC)c(OC)c(OC)c1` (centres unmarked) [Example 6, N,N'-bis-(3',4',5'-trimethoxybenzoyl) 2-n-nonadecyl piperazine], which IC50 (PAF receptors) is on record?
Its IC50 is 4700 nM.

And the IC50 [1]?
Its IC50 is 2400 nM.

How did the IC50 (PAF receptors) turn out when `COc1cc(C(=O)N2CCN(C(=O)c3cc(OC)c(OC)c(OC)c3)C(CCC3CCCCC3)C2)cc(OC)c1OC` (centres unmarked) [Example 7, N,N'-bis-(3',4',5'-trimethoxybenzoyl)-2-n-(cyclohexylethyl) piperazine] was run?
The IC50 was 740 nM.

And the IC50 [1]?
The IC50 was 430 nM.

`COc1cc(CCC2CN(C(=O)c3cc(OC)c(OC)c(OC)c3)CCN2C(=O)c2cc(OC)c(OC)c(OC)c2)cc(OC)c1OC` (centres unmarked) [Example 8, N,N'-bis-(3',4',5'-trimethoxybenzoyl)-2-n-(3,4,5-(trimethoxy)phenethyl) piperazine] was tested. Which IC50 (PAF receptors) did it give?
Its IC50 is 38 nM.

And the IC50 [1]?
Its IC50 is 71 nM.

For `COc1cc(C(=O)N2CCN(C(=O)c3cc(OC)c(OC)c(OC)c3)C(Cc3ccccc3)C2)cc(OC)c1OC` (centres unmarked) [Example 9, N,N'-bis-(3',4',5'-trimethoxybenzoyl)-2-n-(benzyl) piperazine], which IC50 (PAF receptors) is on record?
The IC50 was 730 nM.

What about the IC50 [1] of the same compound?
The IC50 was 410 nM.

Which IC50 (PAF receptors) does the source give for `COc1cc(C(=O)N2CCN(C(=O)c3cc(OC)c(OC)c(OC)c3)C(CCc3ccccc3)C2)cc(OC)c1OC` (centres unmarked) [Example 10, N,N'-bis-(3',4',5'-trimethoxybenzoyl)-2-n-(phenethyl) piperazine] here?
Its IC50 is 4100 nM.

What about the IC50 [1] of the same compound?
Its IC50 is 5400 nM.

How did the IC50 (PAF receptors) turn out when `COc1cc(C(=O)N2CCN(C(=O)c3cc(OC)c(OC)c(OC)c3)C(CCCc3ccccc3)C2)cc(OC)c1OC` (centres unmarked) [Example 11, N,N'-bis-(3',4',5'-trimethoxybenzoyl)-2-n-(phenyl-n-propyl) piperazine] was run?
The IC50 was 31 nM.

And the IC50 [1]?
Its IC50 is 11 nM.

With `COc1ccc(CCC2CN(C(=O)c3cc(OC)c(OC)c(OC)c3)CCN2C(=O)c2cc(OC)c(OC)c(OC)c2)cc1` (centres unmarked) [Example 12, N,N'-bis-(3',4',5'-trimethoxybenzoyl)-2-n-(p-(methoxy)phenethyl) piperazine] as the compound, how does the IC50 (PAF receptors) read?
The IC50 was 60 nM.

And the IC50 [1]?
The IC50 was 62 nM.

With `COc1cc(C(=O)N2CCN(C(=O)c3cc(OC)c(OC)c(OC)c3)C(CCCc3ccc(C)cc3)C2)cc(OC)c1OC` (centres unmarked) [Example 13, N,N'-bis-(3',4',5'-trimethoxybenzoyl)-2-n-(p-(methyl)phenylpropyl) piperazine] as the compound, how does the IC50 (PAF receptors) read?
The IC50 was 140 nM.

What about the IC50 [1] of the same compound?
The IC50 was 350 nM.

What does the source list for `COc1cc(C(=O)N2CCN(C(=O)c3cc(OC)c(OC)c(OC)c3)C(CCc3ccc(Cl)cc3)C2)cc(OC)c1OC` (centres unmarked) [Example 14, N,N'-bis-(3',4',5'-trimethoxybenzoyl)-2-n-(p-(chloro)phenethyl) piperazine]?
IC50 (PAF receptors): 450 nM; IC50 [1]: 170 nM

With `COc1cc(C(=O)N2CCN(C(=O)c3cc(OC)c(OC)c(OC)c3)C(CCc3cccc(Cl)c3Cl)C2)cc(OC)c1OC` (centres unmarked) [Example 15, N,N'-bis-(3',4',5,-trimethoxybenzoyl)-2-n-(2,3-(dichloro)phenethyl) piperazine] as the compound, how does the IC50 (PAF receptors) read?
Its IC50 is 680 nM.

And the IC50 [1]?
Its IC50 is 370 nM.

How did the IC50 (PAF receptors) turn out when `C=CCc1ccc(CCC2CN(C(=O)c3cc(OC)c(OC)c(OC)c3)CCN2C(=O)c2cc(OC)c(OC)c(OC)c2)cc1` (centres unmarked) [Example 16, N,N'-bis-(3',4',5'-trimethoxybenzoyl)-2-n-(p-(allyl)phenethyl) piperazine] was run?
The IC50 was 530 nM.

And the IC50 [1]?
The IC50 was 290 nM.
